Measured values: paper PMC11289891, “Selection and characterization of a peptide-based complement modulator targeting C1 of the innate immune system” (RSC Chemical Biology, 2024)
pEC50, pIC50: −log10 of the molar value. Read-outs that look alike come from different tables or passages of the source. Values belong to the compound of their own block, whether it stands above or below them. Positions of bridges follow the written chain, without caps; N, C: chain ends. Non-standard residues stand in square brackets, D forms with d. Residues, ends and D or L forms follow the SMILES beside them. *: point of attachment. Biotin = O=C1N[C@H]2[C@H](CS[C@H]2CCCCC(=O)*)N1; Lys(N3) = [N-]=[N+]=NCCCC[C@H](N)C(=O)O

Tests used:
[1] = molecular target: T1, C1q (Homo sapiens, UniProt P02745+P02746+P02747); assay: ELISA for complement activation: C1q recruitment from human serum by immobilised peptide; format: binding; details: for pEC50: 1% human serum in RPMI, four-parameter fit
T1 construct: tissue Complement Technology, Inc; host or cells: normal human serum (pooled), 1% in RPMI medium
T1 sequence (P02745 23-245): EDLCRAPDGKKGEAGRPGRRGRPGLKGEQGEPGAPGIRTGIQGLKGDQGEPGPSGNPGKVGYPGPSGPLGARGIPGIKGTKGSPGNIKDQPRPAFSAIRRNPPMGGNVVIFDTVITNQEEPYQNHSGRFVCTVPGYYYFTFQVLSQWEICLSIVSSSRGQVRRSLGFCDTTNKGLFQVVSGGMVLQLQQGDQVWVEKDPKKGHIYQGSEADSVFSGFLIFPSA
T1 sequence (P02746 28-253): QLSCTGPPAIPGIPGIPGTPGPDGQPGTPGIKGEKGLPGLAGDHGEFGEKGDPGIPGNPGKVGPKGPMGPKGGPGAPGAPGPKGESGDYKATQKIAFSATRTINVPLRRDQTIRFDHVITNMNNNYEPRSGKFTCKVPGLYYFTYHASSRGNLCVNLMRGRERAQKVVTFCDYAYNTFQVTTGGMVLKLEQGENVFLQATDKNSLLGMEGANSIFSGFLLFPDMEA
T1 sequence (P02747 29-245): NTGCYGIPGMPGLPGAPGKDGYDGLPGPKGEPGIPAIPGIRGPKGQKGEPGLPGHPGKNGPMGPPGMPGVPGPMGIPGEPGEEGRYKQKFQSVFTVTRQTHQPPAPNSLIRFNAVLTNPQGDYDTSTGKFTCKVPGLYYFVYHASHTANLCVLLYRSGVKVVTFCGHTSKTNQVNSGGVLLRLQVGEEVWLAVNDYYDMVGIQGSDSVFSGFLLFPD
T1 sequence (P00736 18-705 partner): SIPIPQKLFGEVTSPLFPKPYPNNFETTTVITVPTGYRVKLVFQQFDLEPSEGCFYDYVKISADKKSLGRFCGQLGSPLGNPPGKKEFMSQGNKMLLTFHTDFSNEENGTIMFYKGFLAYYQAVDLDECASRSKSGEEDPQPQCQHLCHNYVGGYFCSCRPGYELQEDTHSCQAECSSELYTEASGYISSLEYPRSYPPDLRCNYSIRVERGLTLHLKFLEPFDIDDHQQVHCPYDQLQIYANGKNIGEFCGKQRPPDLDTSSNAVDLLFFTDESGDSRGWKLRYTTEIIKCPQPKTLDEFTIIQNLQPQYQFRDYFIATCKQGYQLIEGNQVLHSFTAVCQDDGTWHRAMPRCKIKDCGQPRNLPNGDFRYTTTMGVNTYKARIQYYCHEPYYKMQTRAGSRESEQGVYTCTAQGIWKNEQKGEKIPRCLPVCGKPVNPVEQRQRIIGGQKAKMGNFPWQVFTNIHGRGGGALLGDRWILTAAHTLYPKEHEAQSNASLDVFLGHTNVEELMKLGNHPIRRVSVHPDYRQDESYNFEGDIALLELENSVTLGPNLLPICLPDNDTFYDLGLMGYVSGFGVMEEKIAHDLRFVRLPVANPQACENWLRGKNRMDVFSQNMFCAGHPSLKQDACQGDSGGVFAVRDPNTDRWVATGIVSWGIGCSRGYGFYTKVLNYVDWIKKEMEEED
T1 sequence (P09871 16-688 partner): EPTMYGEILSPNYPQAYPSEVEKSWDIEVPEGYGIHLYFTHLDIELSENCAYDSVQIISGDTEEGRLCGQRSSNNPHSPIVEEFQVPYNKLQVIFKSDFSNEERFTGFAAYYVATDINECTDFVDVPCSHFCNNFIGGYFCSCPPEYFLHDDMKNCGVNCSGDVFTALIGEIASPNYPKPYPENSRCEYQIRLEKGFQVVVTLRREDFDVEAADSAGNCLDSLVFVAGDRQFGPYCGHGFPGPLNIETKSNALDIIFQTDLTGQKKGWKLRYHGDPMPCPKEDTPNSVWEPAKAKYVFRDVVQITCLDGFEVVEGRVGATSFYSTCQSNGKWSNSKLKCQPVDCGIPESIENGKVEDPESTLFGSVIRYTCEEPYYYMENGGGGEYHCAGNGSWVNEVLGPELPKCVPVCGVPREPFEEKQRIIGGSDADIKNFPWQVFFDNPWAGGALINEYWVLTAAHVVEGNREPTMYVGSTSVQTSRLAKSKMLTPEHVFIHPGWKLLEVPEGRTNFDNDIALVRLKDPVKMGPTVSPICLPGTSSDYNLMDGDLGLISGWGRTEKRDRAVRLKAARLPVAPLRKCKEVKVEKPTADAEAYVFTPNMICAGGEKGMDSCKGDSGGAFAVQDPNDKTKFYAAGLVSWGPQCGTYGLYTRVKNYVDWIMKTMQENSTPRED
Method: Maxisorb Nunc Immunoplates (Thermofisher Scientific, Massachusetts, USA) were coated with streptavidin (Thermofisher Scientific) at 10 μg mL^−1 in 0.1 M Na2CO3, 0.1 M NaHCO3 (coating buffer), pH 9.6 at 50 μL per well and allowed to incubate either at room temperature overnight, or 37 °C for 1 hour. Plates were washed with PBS with 0.05% tween-20 three times. For each following step, samples were incubated at 37 °C for 1 hour and subsequently washed with the PBS-T solution, we denote this as incubation and wash in the latter parts of the text. After streptavidin binding, wells were blocked with 100 μL of 0.1 M spermidine (Thermofisher Scientific) in distilled water incubated and washed. Then peptides were incubated in 50 μL PBS (as with all the following steps) with 0.05% Tween-20 (PBS-T) to create a peptide presenting surface and incubated and washed. In all activation assays, peptides are modified with a biotin to achieve binding to streptavidin. Note that in certain instances the peptides are initially modified with an azide. In such conditions a biotin-PEG4-DBCO (Jena Bioscience GmbH, Germany) was co-incubated with the peptides at 25 mol% excess of biotin linker to create a biotin modified peptide. This conjugation reaction took place in the plate. Hereafter the wells were incubated with 1% normal human serum (NHS) (Complement Technology, Inc., Texas, USA) in RPMI medium (Roswell Park Memorial Institute 1640 medium), then incubated and washed. Following these steps, complement components C1q or C5b-9 were detected. Primary Rabbit anti-C1q or Mouse anti C5b-9 (Dako, Denmark) was added to PBS, 0.05% Tween-20, 0.1% BSA (PBS-BT) in 1 : 2000 and 1 : 333 dilution, respectively, then incubated and washed. Next, goat anti-rabbit and anti-mouse antibodies (Dako, Denmark) modified with horseradish peroxidase (HRP) were diluted 1 : 5000 in PBS-T and added to the plates, then incubated and washed. To detect the HRP on the secondary antibody 2.5 mg mL^−1 ABTS (2′-azino-bis(3-ethylbenzothiazoline-6-sulfonic acid)) was added in citric acid buffer (0.15 M, pH 4.2) (ABTS buffer) containing 0.15 (v/v%) H2O2 was used and samples were incubated at room temperature for 30 minutes. Absorption measurements at 415 nm were performed on a CLARIOstar microplate reader (BMG Labtech, Offenburg, Germany).

[2] = system: C5b-9 deposition by pooled IgG; assay: Competition ELISA on pooled human IgG, C5b-9 detected; format: biochemical
Method: (§1) Materials, including buffers and blocking agent, were the same as for the activation assay, unless stated otherwise. Incubation and wash steps between added new components was kept identical to the section “Enzyme-linked immunosorbent assay (ELISA) for complement activation” above. To determine the competition with pooled human IgG (Sigma-Aldrich, USA), Maxisorb plates were coated with 10 μg mL^−1 of IgG pooled from human serum, incubated, washed and blocked with spermidine. Peptides were incubated with 1% normal human serum (pooled, Complement Technology) for at least 30 minutes before adding to the IgG coated plates. DMSO controls and no serum controls were added. Human serum with and without peptides was added to the plates and subsequent complement inhibition was determined by detecting the presence of C1q or C5b-9. Data shown in the graphs is normalized to the maximum signal of the DMSO control and the minimal signal of the no serum control. Absorption measurements at 415 were performed on a CLARIOstar microplate reader (BMG Labtech, Offenburg, Germany).

[3] = system: C1q binding to pooled IgG; assay: Competition ELISA on pooled human IgG, C1q detected; details: peptide incubated with 1% human serum, pooled IgG-coated plate, two technical replicates
Method: as §1

- pEC50 ([1]; cL3-Az conjugated to biotin-DBCO linker on streptavidin plate, 1 hour 37 °C, single technical replicate, CI 5.2-7.4, R2 0.99, read-out: EC50 of C1q recruitment, Fig. S4): 5.21
- EC50 of C1 recruitment compared with the biotinylated variant ([1]; cL3-Az via biotin-DBCO linker on streptavidin plate, 1% human serum): comparable to the biotinylated variant
Structure (SMILES): CC[C@H](C)[C@@H]1NC(=O)[C@H](Cc2ccccc2)NC(=O)[C@H](CCC(N)=O)NC(=O)[C@H](CC(C)C)NC(=O)[C@H]([C@@H](C)O)NC(=O)[C@H](Cc2ccccc2)NC(=O)[C@@H]2CCCN2C(=O)[C@H](CC(=O)O)NC(=O)[C@@H]2CCCN2C(=O)[C@H](Cc2ccc(O)cc2)NC(=O)[C@H](Cc2ccccc2)NC(=O)[C@H]([C@@H](C)O)NC(=O)[C@H](C(C)C)NC(=O)[C@H]([C@@H](C)O)NC(=O)[C@H](Cc2ccc(O)cc2)NC(=O)CSC[C@@H](C(=O)NCC(=O)N[C@@H](CO)C(=O)N[C@@H](CCCCN=[N+]=[N-])C(=O)NCC(=O)O)NC(=O)[C@H](C)NC1=O [cL3-Az] ({CH2CO}-YTVTFYPDPFTLQFIACGS[Lys(N3)]G-OH; thioether N-17)

- pEC50 ([1]; cL3-Bt titrated on streptavidin plate, technical duplicate on one plate (data of Fig. 3a), CI ND, R2 0.99, read-out: EC50 of C1q recruitment, Fig. S2 graph on the right): 5.21
- pEC50 ([1]; cL3-Bt titrated on streptavidin plate, technical duplicate on one plate, CI 7.4-9.1, R2 0.99, read-out: EC50 of C1q recruitment, Fig. S2 graph in the middle): 5.09
- pEC50 ([1]; cL3-Bt titrated on streptavidin plate, technical duplicate on one plate, CI ND, R2 0.98, read-out: EC50 of C1q recruitment, Fig. S2 graph on the left): 5.57
Structure (SMILES): CC[C@H](C)[C@@H]1NC(=O)[C@H](Cc2ccccc2)NC(=O)[C@H](CCC(N)=O)NC(=O)[C@H](CC(C)C)NC(=O)[C@H]([C@@H](C)O)NC(=O)[C@H](Cc2ccccc2)NC(=O)[C@@H]2CCCN2C(=O)[C@H](CC(=O)O)NC(=O)[C@@H]2CCCN2C(=O)[C@H](Cc2ccc(O)cc2)NC(=O)[C@H](Cc2ccccc2)NC(=O)[C@H]([C@@H](C)O)NC(=O)[C@H](C(C)C)NC(=O)[C@H]([C@@H](C)O)NC(=O)[C@H](Cc2ccc(O)cc2)NC(=O)CSC[C@@H](C(=O)NCC(=O)N[C@@H](CO)C(=O)N[C@@H](CCCCNC(=O)CCCC[C@@H]2SC[C@@H]3NC(=O)N[C@@H]32)C(=O)NCC(=O)O)NC(=O)[C@H](C)NC1=O [cL3-Bt] ({CH2CO}-YTVTFYPDPFTLQFIACGSK(Biotin)G-OH; thioether N-17)

- pIC50 ([2]; data of Fig. 6b, four-parameter fit, CI 1.01-2.13, R2 0.94, read-out: IC50, competition with IgG, Fig. S18 fit): 5.82
Structure (SMILES): CC[C@H](C)[C@@H]1NC(=O)[C@H](Cc2ccccc2)NC(=O)[C@H](CCC(N)=O)NC(=O)[C@H](CC(C)C)NC(=O)[C@H]([C@@H](C)O)NC(=O)[C@H](Cc2ccccc2)NC(=O)[C@@H]2CCCN2C(=O)[C@H](CC(=O)O)NC(=O)[C@@H]2CCCN2C(=O)[C@H](Cc2ccc(O)cc2)NC(=O)[C@H](Cc2ccccc2)NC(=O)[C@H]([C@@H](C)O)NC(=O)[C@H](C(C)C)NC(=O)[C@H]([C@@H](C)O)NC(=O)[C@@H](Cc2ccc(O)cc2)NC(=O)CSC[C@@H](C(=O)NCC(=O)N[C@@H](CO)C(=O)N[C@@H](CCCCNC(=O)CCCC[C@@H]2SC[C@@H]3NC(=O)N[C@@H]32)C(=O)NCC(=O)O)NC(=O)[C@H](C)NC1=O [inv-cL3] ({CH2CO}-[dY]TVTFYPDPFTLQFIACGSK(Biotin)G-OH; thioether N-17; C-terminus assumed)
- Inhibition of C5b-9 deposition by pooled IgG (qualitative, rank) ([2]; peptide incubated with 1% human serum, pooled IgG-coated plate, two technical replicates): significantly worse than full-length cL3
- Inhibition of C1q binding to pooled IgG [3]: minor inhibition of C1q binding to pooled IgG at high concentrations
